In patent publication US20210236445A1, “BACLOFEN AND ACAMPROSATE BASED THERAPY OF ALZHEIMER'S DISEASE IN PATIENTS HAVING LOST RESPONSIVENESS TO ACETYLCHOLINESTERASE INHIBITOR THERAPY” (priority 2018, published 2021):

Legend:
[1] = tested on: patient's cognitive function; details: cited from earlier work
[2] = tested on: Aβ25-35-induced spontaneous alternation deficits in mice; assay: Spontaneous alternation performance (Y-maze) in Aβ25-35 ICV-injected mice; assay type: in vivo, Swiss mice; details: Example C
[3] = tested on: Aβ25-35-induced step-through passive avoidance deficits in mice; assay: Step-through passive avoidance test (STPA) in Aβ25-35 ICV-injected mice; assay type: in vivo, Swiss mice
Procedure: (§1) Male Swiss mice were anesthetized 5 minutes with isoflurane 2.5%. At Day 01, animals were injected intracerebroventricularly (ICV) through a 28-gauge stainless-steel needle, 4 mm long. An injection volume of 3 μl was delivered gradually within 30 s and the needle left in place for an additional 30 s before being removed. […] Homogeneous preparation of the Aβ25-35 peptide were performed according to the AMYLGEN's own procedure.
(§2) All animals received a per os gavage using an inox steel cannula (5 mL/Kg). All the treatments were administered under a volume calculated according to the individual body weight of each mouse (5 mL/Kg). Vehicle and donepezil (1 mg/Kg) administration were done once a day, and the mix Acamprosate/baclofen twice a day (0.2 mg/Kg and 3 mg/Kg, respectively).
(§3) In a first set of experiments (FIG. 1A), the treatment, donepezil (1 mg/Kg), was started 19 days (D20) after icy injection for 21 days (D40) (group 3 and 4). At D30 one group of animals treated with donepezil was administered with acamprosate and baclofen (0.2 mg/Kg and 3 mg/Kg, respectively), in addition of donepezil treatment (group 4).
(§4) In a second set of experiments (FIG. 1B). The treatment, donepezil (1 mg/kg) (Group 5) or the combination acamprosate and baclofen (0.2 mg/Kg and 3 mg/Kg, respectively) (group 7), was started 19 days (D20) after icy injection and maintained for 23 days (D42) in two groups of animals. In a third group of animals (group 6), initially treated with donepezil, treatment with donepezil was stopped at D30 and replaced with administration of acamprosate and baclofen (0.2 mg/Kg and 3 mg/Kg, respectively) until D42.
The guillotine door was initially closed during the training session. Each mouse was placed into the white compartment. After 5 s, the door was raised. […] The retention test was carried out 24 h after training. Each mouse was placed again into the white compartment. After 5 s, the door was raised.
(§5) All animals received a per os gavage using an inox steel cannula. Vehicle or Donepezil (1 mg/kg) were administered at D8 until D17; or at D20 until D30 or at D20 to D40 once a day. All the treatments were administered under a volume calculated according to the individual body weight of each mouse (5 mL/Kg).

[4] = tested on: Aβ25-35-induced spontaneous alternation deficits in mice; assay: Spontaneous alternation performance (Y-maze) in Aβ25-35 ICV-injected mice; assay type: in vivo, Swiss mice; details: for Effect on Aβ25-35-induced cognitive impairment, spontaneous alternation (Y-maze), after longer treatment / Effect on Aβ25-35-induced cognitive impairment, spontaneous alternation (Y-maze): Example A; for Effect on Aβ25-35-induced cognitive impairment, spontaneous alternation (Y-maze), after longer treatment: treatment alone from D20, tested D38 or D40; for Effect on Aβ25-35-induced cognitive impairment, spontaneous alternation (Y-maze): treatment alone per os from D20, eleven days, tested D30, donepezil 1 mg/Kg once a day or acamprosate/baclofen 0.2/3 mg/Kg twice a day
Procedure: as §1, §2, §3, §4
(§6) Mice were tested for spontaneous alternation performance in the Y-maze, an index of spatial working memory. The Y-maze was designed according to Itoh et al.,1993 (57) and Hiramatsu and Inoue, 1999 (58), and is made of grey polyvinylchloride. Each arm is 40 cm long, 13 cm high, 3 cm wide at the bottom, 10 cm wide at the top, and converging at an equal angle. Each mouse was placed at the end of one arm and allowed to move freely through the maze during an 8 min session. The series of arm entries, including possible returns into the same arm, were checked visually by an experimenter blind to treatment. An alternation is defined as entries into all three arms on consecutive occasions. The number of maximum alternations were therefore the total number of arm entries minus two and the percentage of alternation as calculated as (actual alternations / maximum alternations)×100. Calculated parameters consisted in the percentage of alternation (memory index) and the total number of arm entries (exploration index) (52-56).
In the first set of experiments (FIG. 1A), animals were tested after the beginning of the treatment at D30 and D38. In the second set of experiments (FIG. 1B), animals were tested after the beginning of the treatment, at D30 and D40.
as §5
as §6, with “8min” for “8 min”, “occasions.” for “occasions. The number of maximum alternations were therefore the total number of arm entries minus two and the percentage of alternation as calculated as (actual alternations / maximum alternations)×100. Calculated parameters consisted in the percentage of alternation (memory index) and the total number of arm entries (exploration index) (52-56).”

| Compound | Time after initiation of treatment at which cognitive function reaches its baseline level ([1]; Alzheimer's patients) [weeks] | Period during which treatment improved the patient's cognitive function ([1]; Alzheimer's patients, from initiation of treatment) [weeks] | % of alternation in Y-maze at D42 ([2]; 1 mg/Kg from D7, at D42) [%] | Difference of Y-maze effect from Sc.Aβ-vehicle animals ([2]; 1 mg/Kg from D7, between D21 and D28) | Y-maze activity after D48 until D100 ([2]; donepezil 1 mg/Kg only, D7 to D100) | Effect on long-term memory, passive avoidance (step-through latency and escape latency) ([3]; Example A, treatment alone D20 to D40 or D42, tested D39-40 or D41-42) | Recovery of Aβ25-35-induced cognitive impairment assessed by passive avoidance test ([3]; Example B, 1 mg/Kg started at D08 (to D17), tested D16-17) | Activity in passive avoidance test ([3]; Example B, 1 mg/kg administered D20 to D30, tested D29-30) | Fear conditioning memory assessed by STPA at D99/D100 ([3]; Example C, end of experiment, treatment until D100) | Effect on Aβ25-35-induced cognitive impairment, spontaneous alternation (Y-maze), after longer treatment [4] | Effect on Aβ25-35-induced cognitive impairment, spontaneous alternation (Y-maze), after longer treatment ([4]; listed as DNPz) | Effect on Aβ25-35-induced cognitive impairment, spontaneous alternation (Y-maze) [4] | Effect on Aβ25-35-induced cognitive impairment, spontaneous alternation (Y-maze) ([4]; listed as DNPz) | Percentage drug effect in Y-maze at D30 ([4]; Example B, 1 mg/Kg D20 until D40, tested at D30) [%] | Percentage drug effect in Y-maze at D38 ([4]; Example B, 1 mg/Kg D20 until D40, tested at D38, not statistically significant) [%] | Recovery of Aβ25-35-induced cognitive impairment assessed by Y-maze ([4]; Example B, 1 mg/Kg per os once a day started at D08 (to D17), tested D15) | Activity in Y-maze, % of optimal activity ([4]; Example B, 1 mg/kg administered D20 to D30, tested D28) [%] | Efficacy over time in Alzheimer's patients ([1]; compared with donepezil studies) |
| --- | --- | --- | --- | --- | --- | --- | --- | --- | --- | --- | --- | --- | --- | --- | --- | --- | --- | --- |
| COc1cc2c(cc1OC)C(=O)C(CC1CCN(Cc3ccccc3)CC1)C2 (stereo not drawn) [donepezil] | 30 | 12 | 47 | not significantly different | inactivity was sustained | partially restored long-term memory | fully recover | partially active | altered | totally lost | not sustained | partially alleviated | partial activity | 43 | 25 | fully recover | 44 | – |
| CCN(C)C(=O)Oc1cccc([C@H](C)N(C)C)c1 [rivastigmine] | – | – | – | – | – | – | – | – | – | – | – | – | – | – | – | – | – | limited efficacy |
